From patent publication US20140171371A1, “Compositions And Methods For The Diagnosis of Schizophrenia” (The Trustees of Columbia University in the City of New York, priority 2011, published 2014)

System: lymphoblastoid cell lines
Assay: Cyclic AMP accumulation in lymphoblastoid cell lines in response to another GPCR agonist (specificity control)
Type: cell-based, human
Details: PGE2 1 μM + forskolin 10 μM, IBMX 200 μM pre-incubation, 10 min, fold-change over forskolin/IBMX alone
Protocol: Reactions were terminated by pelleting the cells, aspiration of the medium and addition of 100 μl of cold 7.5% (wt/vol) trichloroacetic acid (TCA). Cyclic AMP content in TCA extracts was determined by radioimmunoassay and normalized to the number of cells per well. […] Results presented for each subject represents the mean and standard error of at least ten replicates. Standard error and P-values for pooled results were computed across individuals (FIG. 3).

CCCCC[C@H](O)/C=C/[C@H]1[C@H](O)CC(=O)[C@@H]1C/C=C\CCCC(=O)O [prostaglandin E2]
cAMP accumulation in response to agonist, 7q36.3 duplication carriers compared to controls: no group difference
cAMP accumulation in response to agonist, 7q36.3 duplication carriers compared to controls (listed as PGE2): No difference
cAMP accumulation in response to agonist, 7q36.3 duplication carriers compared to controls (listed as Prostaglandin E2): No significant differences
